These results are taken from paper PMC9445672, “A novel angiotensin-I-converting enzyme inhibitory peptide from oyster: Simulated gastro-intestinal digestion, molecular docking, inhibition kinetics and antihypertensive effects in rats” (Frontiers in Nutrition, 2022).

Where two headings read alike, the source gives them in different places. Residues, ends and D or L forms follow the SMILES beside them.

Assay [1] addresses T1, Angiotensin-I converting enzyme (ACE) (from rabbit lungs) (Oryctolagus cuniculus, UniProt P12822).
T1 construct: Angiotensin-I converting enzyme (ACE) (from rabbit lungs); purchased Sigma-Aldrich Co. (St. Louis, MO, United States); host or cells: rabbit lung tissue
T1 sequence (P12822 34-1310): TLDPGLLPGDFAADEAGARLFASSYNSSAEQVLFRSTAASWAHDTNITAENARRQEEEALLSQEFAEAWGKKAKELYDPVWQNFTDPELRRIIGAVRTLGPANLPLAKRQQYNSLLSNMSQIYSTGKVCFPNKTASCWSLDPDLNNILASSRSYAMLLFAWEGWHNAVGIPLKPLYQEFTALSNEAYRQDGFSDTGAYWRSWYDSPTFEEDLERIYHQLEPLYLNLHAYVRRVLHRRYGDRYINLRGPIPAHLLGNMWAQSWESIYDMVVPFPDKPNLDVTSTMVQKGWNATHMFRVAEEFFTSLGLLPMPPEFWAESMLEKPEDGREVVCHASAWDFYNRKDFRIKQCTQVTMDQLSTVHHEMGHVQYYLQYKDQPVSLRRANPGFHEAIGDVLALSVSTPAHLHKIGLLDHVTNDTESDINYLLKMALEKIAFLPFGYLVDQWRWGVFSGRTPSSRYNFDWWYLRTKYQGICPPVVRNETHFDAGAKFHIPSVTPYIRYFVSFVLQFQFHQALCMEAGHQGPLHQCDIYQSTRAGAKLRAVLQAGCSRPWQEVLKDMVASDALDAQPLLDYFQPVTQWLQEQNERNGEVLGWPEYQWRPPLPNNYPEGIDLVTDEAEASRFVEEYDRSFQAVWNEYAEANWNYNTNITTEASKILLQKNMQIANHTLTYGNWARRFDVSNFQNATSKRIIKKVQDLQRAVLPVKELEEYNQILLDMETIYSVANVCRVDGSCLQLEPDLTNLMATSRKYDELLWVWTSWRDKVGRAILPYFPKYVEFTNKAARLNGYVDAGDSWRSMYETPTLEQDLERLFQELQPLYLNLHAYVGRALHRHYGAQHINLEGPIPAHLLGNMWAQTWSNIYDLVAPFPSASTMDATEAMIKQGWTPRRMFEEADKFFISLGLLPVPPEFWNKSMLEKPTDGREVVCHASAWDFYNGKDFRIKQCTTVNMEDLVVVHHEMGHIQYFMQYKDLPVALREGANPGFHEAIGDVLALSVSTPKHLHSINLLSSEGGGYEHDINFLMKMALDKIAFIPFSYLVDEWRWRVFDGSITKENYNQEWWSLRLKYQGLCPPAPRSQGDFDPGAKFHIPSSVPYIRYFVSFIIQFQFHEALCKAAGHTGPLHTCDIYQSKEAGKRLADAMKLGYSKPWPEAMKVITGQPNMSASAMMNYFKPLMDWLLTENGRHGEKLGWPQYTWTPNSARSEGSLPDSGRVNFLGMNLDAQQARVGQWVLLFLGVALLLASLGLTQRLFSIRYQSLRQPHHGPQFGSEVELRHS
Put plainly: ACE-inhibitory activity assay (HHL substrate, HPLC of hippuric acid). The assay is classed as biochemical. Here is the method: The ACEI activity of the synthesized peptides was measured following the reported method with a minor modification ([22]). The experiment was carried out in a 1.5 mL PE tube. Briefly, for each assay, 20 μL of the inhibitor (1 mg/ml) was mixed with 120 μL of the HHL solution in the concentration of 5 mM. The mixture was first preincubated at a constant temperature of 37°C for 5 min, 10 μL ACE (0.1 U/mL) was then added to start the reaction, and to incubate at 37°C for 60 min. In the end, 150 μl HCl (1M) was used to terminate the reaction. Meanwhile, the inhibitor solution was replaced with 20 μL boric acid buffer solution (0.1 mol/L, pH 7.3, containing 0.3 mol/L NaCl) as a blank control group. The HPLC system was equipped with a ZORBAX Eclipse SB-C18 column (5 μm particle size, 4.6 × 150 mm). To analyze the releasing amount of hippuric acid under the action of ACE, the elution was conducted in 25% Mobile Phase A (ACN) and 75% Mobile Phase B (0.05% TFA in ultrapure water) for 25 min with a flow rate of 0.8 mL/min. The ACE inhibitory activity percentage (%) was calculated based on the equation below:
ACEinhibitionrate(%)=(B-S)/B×100
Where B and S are the chromatographic peak areas of the control group and the sample tested, respectively. IC50 is the inhibitor concentration capable of inhibiting 50% of ACE activity under the described experimental conditions, which was estimated by non-linear regression of ACE inhibition (%) against different inhibitor concentrations by using SPSS software.

Assay [2] has as its target T1, Angiotensin-I converting enzyme (ACE) (from rabbit lungs). The assay is described as above. Conditions: peptide 2 mg/mL, HHL 5 mM, ACE 0.1 U/mL, 37°C, 5 min pre-incubation, 60 min, triplicate. The assay is classed as biochemical.
Assay [3] has the same target. Put plainly: Kinetics of ACE inhibition (Lineweaver-Burk plot). The note with it: HHL 1–10 mM, peptide 1 and 2 mg/mL. The assay is classed as biochemical. On the procedure: To explore the inhibition pattern of the peptide and clarify the kinetics of ACEI activity, the Lineweaver-Burk plot was employed in our study. The various concentrations of the HHL solution were 1, 2, 5, 8, and 10 mM, and the concentration of synthesized peptide was set as 2 mg/mL. Various concentrations of HHL and peptide were incubated in ACE solutions. The Y-intercept of the Lineweaver-Burk plot represents the reciprocal of the maximum velocity (Vmax^–1), while the X-intercept is the reciprocal of the Michaelis-Menten constant (Km^–1).

Assay [4] relates to SHRs (spontaneously hypertensive rats). The experiment in a line: Blood pressure of SHRs after single intragastric administration (tail-cuff). The assay is classed as in vivo, rat. Here is the method:
Male SHRs aged 10–12 weeks old, body weight (BW) of 220–250 g, and blood pressure over 180 mmHg were purchased from Trophic Animal Feed High-tech Co. Ltd., (Nantong, China). Six SHRs were administrated individually in each cage with the stable room temperature (25 ± 0.5°C), the humidity of 55 ± 5%, and a 12-h light to12-h dark cycle. Food and water were freely accessed. Rats were accustomed to the above environment for 2 weeks before the experiment. […] The SHRs were randomly grouped in 3. Rats were gavage administered with peptide at 15 mg/kg⋅BW/day in the experiment group. […] All rats were gavaged with their daily dose at 8 am, and the blood pressure was measured every 3 h by 4 times, which was using the tail-cuff method ([27]). Briefly, rats were covered with a fixed device but could let their tail leak out (MK2000ST, Muromachi Kikai Co., Ltd., Japan). A cuff was curled around the tail to measure the diastolic blood pressure (DBP) and systolic blood pressure (SBP).

The next assay has as its system ACE. Conditions: cited from earlier work. An excerpt: The inhibitory patterns of the ACEI peptides mainly contain competitive inhibition, non-competitive inhibition, and mixed inhibition according to their various structures. […] Non-competitive A ... || The Lineweaver-Burk plots were employed to elucidate the ACE inhibition kinetic of the synthetic peptide […], shown in Figure 2B. Whereas the Vmax was the same when the concentrations of the inhibitory peptide increased, the Km/Vmax value increased. […] Among all the ACE inhibition patter ...

The subject of assay [5] is Ren1 / Adrb3 expression in SHRs. Also noted: method as in 2 sources, one per row (each row's own in cited_ref): ref [45] = [45]; PMID 24404915; doi:10.1021/jf405189y; 45. Yu ZP Yin YG Zhao WZ Chen F Liu JB . Antihypertensive effect of angiotensin-converting enzyme inhibitory peptide RVPSL on spontaneously hypertensive rats by regulating gene expression of the renin ||| ref [46] = [46]; PMID 26517713; doi:10.1371/journal.pone.0142016; 46. Feng J Dai Z Zhang Y Meng L Ye J Ma X . Alteration of gene expression profile in kidney of spontaneously hypertensive rats treated with protein hydrolysate of blue mussel ( Mytilus edulis ) by DNA. The note with it: SHRs orally administered 50 mg/kg; ref [45]; cited from earlier work.

The mark [6] stands for this setting: peptide 1 mg/mL, HHL 5 mM, ACE 0.1 U/mL, 37°C, 5 min pre-incubation, 60 min, HPLC of hippuric acid, triplicate.
The mark [7] stands for this setting: clinical drugs for hypertension, ref [30].
Where [8] appears, read: food-derived peptides, ref [41], [42].
[9] abbreviates: food-derived peptides, ref [32], [37].
Setting [10] is: food-derived peptides, ref [43], [44].

As for `CC(C)C[C@H](NC(=O)[C@H](Cc1ccc(O)cc1)NC(=O)[C@H](CCC(=O)O)NC(=O)[C@H](C)N)C(=O)N[C@@H](CS)C(=O)N[C@@H](CCC(=O)O)C(=O)N[C@@H](C)C(=O)N[C@@H](CS)C(=O)O` (H-AEYLCEAC-OH), the “ACE inhibition rate (%) Concentration (1 mg/mL)” value in assay [1] (setting [6]) was found to be 14.2857%. Besides, the inhibition at 1000 µg/mL in assay [1] (peptide 1 mg/mL, HHL 5 mM, ACE 0.1 U/mL, 37°C, 5 min pre-incubation, 60 min, HPLC of hippuric acid, triplicate, read-out: ACE inhibition rate (%) Concentration (1 mg/mL)) stood at 14.3%. Further, the IC50 (commonly the midpoint of a concentration-inhibition curve) in assay [1] (peptide 0.2–15 mg/mL, HPLC method, regression y = −0.0073x^2 + 0.1616x −0.0105 (R^2 = 0.99), read-out: IC50 of ACE inhibition) came to 4.29 mM. The “ACE inhibition rate (%) Concentration (2 mg/mL)” value in assay [2] was 29.3266%. In assay [2] (read-out: ACE inhibition rate (%) Concentration (2 mg/mL)), the inhibition at 2000 µg/mL was 29.3%. The “Km/Vmax value with increasing inhibitory peptide concentration” value in assay [3] is recorded as “increased”.

On to `C[C@H](CS)C(=O)N1CCC[C@H]1C(=O)O` [captopril], for which, in assay [4] (all data of single and 4-week administration in SHRs), the “blood pressure reduction in rats with hypertension, overall comparison” value is on record as “better than AEYLCEAC”. The “SBP after a single intragastric administration” value in assay [4] (male SHRs, gavage, peptide 15 mg/kg BW, captopril 10 mg/kg BW, 3 to 12 h, vs water control, p < 0.01) was “SBP in control group was significantly higher than that in the peptide group and positive group”.

As to `CCOC(=O)[C@H](CCc1ccccc1)N[C@@H](C)C(=O)N1CCC[C@H]1C(=O)O` [enalapril], in the assay on ACE (setting [7]), the ACE inhibitory pattern result is listed as “competitive inhibitors”.

Regarding `NCCCC[C@H](N[C@@H](CCc1ccccc1)C(=O)O)C(=O)N1CCC[C@H]1C(=O)O` [lisinopril], the ACE inhibitory pattern result in the assay with ACE (setting [7]) is recorded as “competitive inhibitors”.

As to “ALVY [from Gac Seed Protein Hydrolysates]”, in the assay with ACE (setting [8]), the ACE inhibitory pattern entry is given as “competitive”.

Take AVKVL [derived from hazelnut]: in the assay on ACE (setting [9]), the ACE inhibitory pattern entry is reported as “Non-competitive”.

Turning to EPNGLLLPQY [from walnut protein], the ACE inhibitory pattern entry with ACE (setting [10]) is “mixed pattern”.

As to ETSGMKPTEL [isolated from longan seeds], in the assay on ACE (setting [9]), the ACE inhibitory pattern result is listed as “Non-competitive”.

As for ISSMGILVCL [isolated from longan seeds], the ACE inhibitory pattern entry with ACE (setting [9]) is recorded as “Non-competitive”.

As for LDVSWASD, the “ACE inhibition rate (%) Concentration (1 mg/mL)” value in assay [1] (setting [6]) came out at 3.6918%. Moreover, the “ACE inhibition rate (%) Concentration (2 mg/mL)” value in assay [2] is 13.9971%.

Consider LSSNLHG, for which the “ACE inhibition rate (%) Concentration (1 mg/mL)” value in assay [1] (setting [6]) is on record as “–1.1236%”. The “ACE inhibition rate (%) Concentration (2 mg/mL)” value in assay [2] was “–5.7205%”.

Turning to “NMAINPSKENLCSTFCK [isolated from casein hydrolysates]”, the ACE inhibitory pattern result with ACE (setting [10]) is listed as “mixed pattern”.

With QAGLSPVR [from tilapia skin gelatin], the ACE inhibitory pattern entry in the assay on ACE (setting [9]) is recorded as “Non-competitive”.

In the case of QEVVMGEC, the “ACE inhibition rate (%) Concentration (1 mg/mL)” value in assay [1] (setting [6]) is on record as “–3.8523%”. The “ACE inhibition rate (%) Concentration (2 mg/mL)” value in assay [2] was “–5.0688%”.

With “QLVP [from Mycelia of Ganoderma Lucidum]”, the ACE inhibitory pattern result in the assay on ACE (setting [10]) is “mixed pattern”.

Consider RSNDGPI, for which the “ACE inhibition rate (%) Concentration (1 mg/mL)” value in assay [1] (setting [6]) is listed as “–13.9647%”. Further, the “ACE inhibition rate (%) Concentration (2 mg/mL)” value in assay [2] is reported as “–4.3447%”.

As for “RVPSL [hydrolyzed from egg white protein]”, in assay [5], the Ren1 expression result is “downregulated”.

Consider “SSYYPFK [from naked oat globulin hydrolysates]”, for which the ACE inhibitory pattern result with ACE (setting [8]) is “competitive”.

For TLVGR [derived from hazelnut], the ACE inhibitory pattern result in the assay with ACE (setting [9]) is on record as “Non-competitive”.

As to TNEVEGPS, in assay [1] (setting [6]), the “ACE inhibition rate (%) Concentration (1 mg/mL)” value is “–4.8796%”. Moreover, the “ACE inhibition rate (%) Concentration (2 mg/mL)” value in assay [2] amounted to 7.9218%.

Consider VGLPNSR [from tilapia skin gelatin], for which the ACE inhibitory pattern entry with ACE (setting [9]) is “Non-competitive”.

Consider VILGDADLP, for which, in assay [1] (setting [6]), the “ACE inhibition rate (%) Concentration (1 mg/mL)” value was 1.6051%. The “ACE inhibition rate (%) Concentration (2 mg/mL)” value in assay [2] was 4.7219%.

Take YLVR [derived from hazelnut]: the ACE inhibitory pattern result with ACE (setting [9]) is given as “Non-competitive”.
